Laboratory results taken from publication PMC8766756, “Insights on Cancer Cell Inhibition, Subcellular Activities, and Kinase Profile of Phenylacetamides Pending 1H-Imidazol-5-One Variants” (Frontiers in Pharmacology, 2022).

Experiments:
Test in all cases: PamChip tyrosine kinase microarray
Format in all cases: biochemical
Conditions in all cases: 0.1 µM, HL60 lysate
[1] = target: T1, EphA5 (P54756) (Homo sapiens, UniProt P54756)
T1 construct: purchased PamGene (PamChip PTK array, Upstream Kinase Analysis)
T1 sequence (P54756 25-1037): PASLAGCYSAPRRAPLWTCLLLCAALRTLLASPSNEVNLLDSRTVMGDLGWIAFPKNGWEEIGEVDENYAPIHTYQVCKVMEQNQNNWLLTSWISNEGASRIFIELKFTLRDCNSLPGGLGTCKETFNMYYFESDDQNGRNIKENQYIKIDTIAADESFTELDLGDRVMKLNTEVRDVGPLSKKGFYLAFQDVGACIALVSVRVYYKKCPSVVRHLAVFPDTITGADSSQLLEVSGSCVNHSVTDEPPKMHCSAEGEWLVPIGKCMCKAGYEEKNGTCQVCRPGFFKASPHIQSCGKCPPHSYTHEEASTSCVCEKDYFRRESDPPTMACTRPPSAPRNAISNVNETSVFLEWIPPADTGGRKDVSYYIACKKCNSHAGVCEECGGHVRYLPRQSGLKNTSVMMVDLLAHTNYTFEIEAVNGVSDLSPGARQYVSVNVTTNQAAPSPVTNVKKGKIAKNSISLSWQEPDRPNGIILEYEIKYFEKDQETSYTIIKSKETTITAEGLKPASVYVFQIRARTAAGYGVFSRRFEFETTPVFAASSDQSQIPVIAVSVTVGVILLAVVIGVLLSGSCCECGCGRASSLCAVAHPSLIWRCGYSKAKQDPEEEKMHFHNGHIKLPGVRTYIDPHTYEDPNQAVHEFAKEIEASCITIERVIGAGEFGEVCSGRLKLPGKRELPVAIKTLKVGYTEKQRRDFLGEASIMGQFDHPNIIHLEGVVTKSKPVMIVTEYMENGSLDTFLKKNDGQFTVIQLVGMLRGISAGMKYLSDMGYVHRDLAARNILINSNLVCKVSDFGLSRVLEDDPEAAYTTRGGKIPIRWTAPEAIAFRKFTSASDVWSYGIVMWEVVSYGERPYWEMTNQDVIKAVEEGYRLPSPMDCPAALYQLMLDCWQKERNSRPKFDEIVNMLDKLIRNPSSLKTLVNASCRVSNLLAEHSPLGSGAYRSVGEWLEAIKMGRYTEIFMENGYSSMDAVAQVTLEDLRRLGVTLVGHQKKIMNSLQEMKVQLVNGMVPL
How it was run: (§1)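 HL60 (AML) cell lysate was spiked with compound at 0.001, 0.01, 0.1, 1, 10 and 50 µM, or 2% v/v DMSO as control, then profiled in technical replicates on a tyrosine kinase peptide array of 196 phosphosites. Kinase activity was inferred from peptide-set changes using an upstream kinase tool.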

[2] = target: T2, EphA8 (P29322) (Homo sapiens, UniProt P29322)
T2 construct: purchased PamGene (PamChip PTK array, Upstream Kinase Analysis)
T2 sequence (P29322 28-1005): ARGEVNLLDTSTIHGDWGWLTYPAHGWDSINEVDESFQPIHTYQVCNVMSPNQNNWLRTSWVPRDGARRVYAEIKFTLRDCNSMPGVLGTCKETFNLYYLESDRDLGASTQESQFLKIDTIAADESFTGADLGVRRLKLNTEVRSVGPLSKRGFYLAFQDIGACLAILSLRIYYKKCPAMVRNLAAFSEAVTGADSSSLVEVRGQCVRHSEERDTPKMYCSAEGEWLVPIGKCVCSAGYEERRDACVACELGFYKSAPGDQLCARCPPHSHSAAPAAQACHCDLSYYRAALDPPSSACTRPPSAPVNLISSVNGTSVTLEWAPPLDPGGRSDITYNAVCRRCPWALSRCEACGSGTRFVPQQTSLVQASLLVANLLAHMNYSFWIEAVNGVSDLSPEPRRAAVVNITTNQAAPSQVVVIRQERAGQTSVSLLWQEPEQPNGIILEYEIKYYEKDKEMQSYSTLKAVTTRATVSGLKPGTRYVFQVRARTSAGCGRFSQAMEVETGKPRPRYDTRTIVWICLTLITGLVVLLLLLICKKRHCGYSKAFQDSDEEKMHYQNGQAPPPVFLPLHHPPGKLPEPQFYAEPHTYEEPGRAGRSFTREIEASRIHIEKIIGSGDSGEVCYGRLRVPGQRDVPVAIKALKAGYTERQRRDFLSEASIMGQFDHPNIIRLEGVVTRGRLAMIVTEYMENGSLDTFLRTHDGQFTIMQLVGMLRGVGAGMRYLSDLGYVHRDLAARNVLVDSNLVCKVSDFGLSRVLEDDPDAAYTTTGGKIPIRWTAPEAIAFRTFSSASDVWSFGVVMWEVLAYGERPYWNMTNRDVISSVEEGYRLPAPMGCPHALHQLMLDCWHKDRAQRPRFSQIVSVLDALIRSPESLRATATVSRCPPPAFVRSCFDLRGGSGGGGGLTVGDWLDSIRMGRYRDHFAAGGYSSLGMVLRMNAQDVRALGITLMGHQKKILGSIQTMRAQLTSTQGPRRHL
How it was run: as §1

[3] = target: T3, Etk/BMX (P51813) (Homo sapiens, UniProt P51813)
T3 construct: purchased PamGene (PamChip PTK array, Upstream Kinase Analysis)
T3 sequence (P51813 1-675): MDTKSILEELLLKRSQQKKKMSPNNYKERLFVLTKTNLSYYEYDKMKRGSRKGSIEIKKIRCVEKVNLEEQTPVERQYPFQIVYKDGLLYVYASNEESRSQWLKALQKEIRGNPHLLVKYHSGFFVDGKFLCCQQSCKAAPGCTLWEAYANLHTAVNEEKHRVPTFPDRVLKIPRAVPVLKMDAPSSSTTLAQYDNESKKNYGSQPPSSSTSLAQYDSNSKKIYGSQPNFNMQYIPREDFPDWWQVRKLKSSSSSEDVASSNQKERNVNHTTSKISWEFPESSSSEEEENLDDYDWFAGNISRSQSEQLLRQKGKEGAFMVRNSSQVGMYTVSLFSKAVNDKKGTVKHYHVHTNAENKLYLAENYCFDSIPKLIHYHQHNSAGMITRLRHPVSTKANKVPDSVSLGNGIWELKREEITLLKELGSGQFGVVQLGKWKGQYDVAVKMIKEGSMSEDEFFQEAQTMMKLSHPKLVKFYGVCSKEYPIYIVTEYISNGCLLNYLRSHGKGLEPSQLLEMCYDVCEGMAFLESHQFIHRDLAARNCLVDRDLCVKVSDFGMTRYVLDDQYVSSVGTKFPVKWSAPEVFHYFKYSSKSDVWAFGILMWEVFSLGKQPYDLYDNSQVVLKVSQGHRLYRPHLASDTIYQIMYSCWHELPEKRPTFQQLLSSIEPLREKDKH
How it was run: as §1

[4] = target: T4, Met (P08581) (Homo sapiens, UniProt P08581)
T4 construct: purchased PamGene (PamChip PTK array, Upstream Kinase Analysis)
T4 sequence (P08581 25-1390): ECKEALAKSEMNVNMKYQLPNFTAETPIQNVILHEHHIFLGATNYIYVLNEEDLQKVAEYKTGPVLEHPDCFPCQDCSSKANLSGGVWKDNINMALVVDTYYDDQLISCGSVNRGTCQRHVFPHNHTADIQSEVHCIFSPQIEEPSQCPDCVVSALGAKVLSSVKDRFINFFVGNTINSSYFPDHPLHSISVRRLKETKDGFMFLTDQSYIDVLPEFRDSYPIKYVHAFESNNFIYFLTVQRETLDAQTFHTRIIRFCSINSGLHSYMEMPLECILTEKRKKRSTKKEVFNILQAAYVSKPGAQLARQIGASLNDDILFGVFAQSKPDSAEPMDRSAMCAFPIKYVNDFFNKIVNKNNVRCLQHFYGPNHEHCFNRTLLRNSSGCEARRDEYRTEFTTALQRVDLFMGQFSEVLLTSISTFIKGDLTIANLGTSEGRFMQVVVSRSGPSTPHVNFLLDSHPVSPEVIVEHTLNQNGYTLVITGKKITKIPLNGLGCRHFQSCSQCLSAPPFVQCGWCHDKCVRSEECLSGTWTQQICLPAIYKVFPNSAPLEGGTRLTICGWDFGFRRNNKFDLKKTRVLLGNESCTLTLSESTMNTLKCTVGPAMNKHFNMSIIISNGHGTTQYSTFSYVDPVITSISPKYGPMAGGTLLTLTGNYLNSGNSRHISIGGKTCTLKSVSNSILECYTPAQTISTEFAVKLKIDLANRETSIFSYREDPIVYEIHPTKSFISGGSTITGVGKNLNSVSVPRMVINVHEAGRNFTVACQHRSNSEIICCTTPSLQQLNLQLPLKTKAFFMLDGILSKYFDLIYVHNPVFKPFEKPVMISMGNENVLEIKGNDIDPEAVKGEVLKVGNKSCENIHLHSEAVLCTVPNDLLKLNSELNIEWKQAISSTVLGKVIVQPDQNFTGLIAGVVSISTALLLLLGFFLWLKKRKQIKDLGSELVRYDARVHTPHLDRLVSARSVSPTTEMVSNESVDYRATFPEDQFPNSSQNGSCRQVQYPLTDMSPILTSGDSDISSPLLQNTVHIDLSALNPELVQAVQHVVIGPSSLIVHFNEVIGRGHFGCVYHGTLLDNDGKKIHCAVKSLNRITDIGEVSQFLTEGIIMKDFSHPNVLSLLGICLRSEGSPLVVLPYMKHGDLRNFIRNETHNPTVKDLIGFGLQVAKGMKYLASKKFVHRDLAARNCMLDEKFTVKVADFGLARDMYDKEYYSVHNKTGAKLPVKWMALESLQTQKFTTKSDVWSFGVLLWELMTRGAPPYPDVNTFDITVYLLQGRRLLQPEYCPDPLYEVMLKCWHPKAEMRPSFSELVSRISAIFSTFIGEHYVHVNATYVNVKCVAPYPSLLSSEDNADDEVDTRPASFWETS
How it was run: as §1

COc1ccc(/C=C2\N=C(C)N(c3ccc(CC(=O)NCc4ccccc4)cc3)C2=O)cc1 [Compound 4c, (Z)-N-Benzyl-2-(4-(4-(4-methoxybenzylidene)-2-methyl-5-oxo-4,5-dihydro-1H-imidazol-1-yl)phenyl)acetamide]
Mean Final score (Kinase score) [1]: 2.0125
Mean Kinase Statistic [1]: -1.181
Mean Significance Score [1]: 1.675
Mean Specificity Score [1]: 0.3238
Mean Final score (Kinase score) [2]: 2.201
Mean Kinase Statistic [2]: -0.925
Mean Significance Score [2]: 1.989
Mean Specificity Score [2]: 0.1251
Mean Final score (Kinase score) [3]: 2.196
Mean Kinase Statistic [3]: -1.111
Mean Significance Score [3]: 2.048
Mean Specificity Score [3]: 0.1452
Mean Final score (Kinase score) [4]: 2.5
Mean Kinase Statistic [4]: -1.184
Mean Significance Score [4]: 2.048
Mean Specificity Score [4]: 0.4367
